Laboratory results published in PubChem BioAssay AID192 (DTP/NCI, 2004).
Several values for one entry are separate records, joined by “and”; a condition that tells them apart may be missing. Equal entries are not always repeated. Inconclusive results and toxic doses are left out. Rule for the calls: active = survival T/C of 150% or more; inactive = T/C below 125% in these data.

Tested on: BDF1 mice, B16 melanoma ip, median survival T/C
Test: NCI In Vivo Anticancer Drug Screen. Data for tumor model B16 Melanoma (intraperitoneal) in B6D2F1 (BDF1) mice
Conditions: endpoint: median survival time, higher = longer survival
Outline: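 Tumor-bearing mice received test compound or vehicle. Survival or tumor size was then measured in both groups. The treated-group figure was divided by the control-group figure.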

[1] = dose: 100.0 mg/kg/injection, schedule: Q01DX009 (ip), vehicle: Klucel (hydroxypropylcellulose) (HPC)
[2] = dose: 200.0 mg/kg/injection, schedule: Q01DX009 (ip), vehicle: Klucel (hydroxypropylcellulose) (HPC)
[3] = dose: 3.13 mg/kg/injection, schedule: Q01DX009 (ip), vehicle: saline with Tween-80
[4] = dose: 6.25 mg/kg/injection, schedule: Q01DX009 (ip), vehicle: saline with Tween-80
[5] = dose: 12.5 mg/kg/injection, schedule: Q01DX009 (ip), vehicle: saline with Tween-80
[6] = dose: 6.0 mg/kg/injection, schedule: Q01DX009 (ip), vehicle: saline with Tween-80
[7] = dose: 50.0 mg/kg/injection, schedule: Q01DX009 (ip), vehicle: saline with Tween-80
[8] = dose: 100.0 mg/kg/injection, schedule: Q01DX009 (ip), vehicle: saline with Tween-80
[9] = dose: 200.0 mg/kg/injection, schedule: Q01DX009 (ip), vehicle: saline with Tween-80
[10] = dose: 6.25 mg/kg/injection, schedule: Q01DX009 (ip), vehicle: saline
[11] = dose: 12.5 mg/kg/injection, schedule: Q01DX009 (ip), vehicle: saline
[12] = dose: 25.0 mg/kg/injection, schedule: Q01DX009 (ip), vehicle: saline
[13] = dose: 50.0 mg/kg/injection, schedule: Q01DX009 (ip), vehicle: saline
[14] = dose: 100.0 mg/kg/injection, schedule: Q04DX003 (ip), vehicle: Klucel (hydroxypropylcellulose) (HPC)
[15] = dose: 200.0 mg/kg/injection, schedule: Q04DX003 (ip), vehicle: Klucel (hydroxypropylcellulose) (HPC)
[16] = dose: 400.0 mg/kg/injection, schedule: Q04DX003 (ip), vehicle: Klucel (hydroxypropylcellulose) (HPC)
[17] = dose: 100.0 mg/kg/injection, schedule: Q01DX009 (ip), vehicle: saline

Measured: T/C

C=C1COC(O)(C2OCOC(C3CC(=O)NC(=O)C3)C2O)C1C (centres undefined)
inactive: dose: 2.0 micrograms/kg/injection, schedule: Q01DX009 (ip), vehicle: water 104 % of control | dose: 4.0 micrograms/kg/injection, schedule: Q01DX009 (ip), vehicle: water 104 % of control | dose: 8.0 micrograms/kg/injection, schedule: Q01DX009 (ip), vehicle: water 100 % of control | dose: 16.0 micrograms/kg/injection, schedule: Q01DX009 (ip), vehicle: water 108 % of control | dose: 32.0 micrograms/kg/injection, schedule: Q01DX009 (ip), vehicle: water 103 % of control

COC(=O)C(C(=O)OC)C(Br)(OC(C)=O)OC(C)=O
inactive: dose: 50.0 mg/kg/injection, schedule: Q04DX003 (ip), vehicle: saline with Tween-80 105 % of control | dose: 100.0 mg/kg/injection, schedule: Q04DX003 (ip), vehicle: saline with Tween-80 95 % of control | dose: 200.0 mg/kg/injection, schedule: Q04DX003 (ip), vehicle: saline with Tween-80 99 % of control | dose: 400.0 mg/kg/injection, schedule: Q04DX003 (ip), vehicle: saline with Tween-80 103 % of control

COc1ccc2c(c1Oc1ccc([N+](=O)[O-])cc1[N+](=O)[O-])C13CCN(C)C(C2)C1CCC1(C3)OCCO1 (centres undefined)
inactive: [1] 111 % of control | [2] 86 % of control

C/C(=N/O)[c-]1[c-][c-][c-][c-]1.[Fe].[c-]1[c-][c-][cH-][c-]1
inactive: [3] 91 % of control | dose: 3.13 mg/kg/injection, schedule: Q04DX003 (ip), vehicle: saline with Tween-80 98 % of control | [4] 100 % of control | dose: 6.25 mg/kg/injection, schedule: Q04DX003 (ip), vehicle: saline with Tween-80 96 % of control | [5] 97 % of control | dose: 12.5 mg/kg/injection, schedule: Q04DX003 (ip), vehicle: saline with Tween-80 94 % of control

O=C1NC(Cc2ccc(N(CCCl)CCCl)cc2)C(=O)O1 (centres undefined)
inactive: dose: 0.1 mg/kg/injection, schedule: Q01DX009 (ip), vehicle: saline with Tween-80 94 % of control | dose: 0.2 mg/kg/injection, schedule: Q01DX009 (ip), vehicle: saline with Tween-80 102 % of control | dose: 0.4 mg/kg/injection, schedule: Q01DX009 (ip), vehicle: saline with Tween-80 105 % of control
active: dose: 3.0 mg/kg/injection, schedule: Q01DX009 (ip), vehicle: saline with Tween-80 157 % of control | [3] 197 % of control | [6] 203 % of control | [5] 155 % of control

CC(C)CC(NC(=O)C(CC(C)C)NC(=O)OCc1ccccc1)C(=O)O (centres undefined)
inactive: [7] 97 % of control | [8] 101 % of control | [9] 92 % of control

C=CC(=O)N1CN(C(=O)C=C)CN(C(=O)C=C)C1
inactive: dose: 0.78 mg/kg/injection, schedule: Q01DX009 (ip), vehicle: saline with Tween-80 110 % of control | dose: 1.56 mg/kg/injection, schedule: Q01DX009 (ip), vehicle: saline with Tween-80 114 % of control | dose: 3.12 mg/kg/injection, schedule: Q01DX009 (ip), vehicle: saline with Tween-80 116 % of control

CN(C)CC(C)(C)CN1c2ccccc2Sc2ccccc21
inactive: [10] 117 % of control | [11] 105 % of control | [12] 105 % of control

C=C1C(=O)O[C@@H]2/C=C(/C)[C@@]3(O)C=C[C@](C)(C[C@@H](OC(=O)/C(=C\C)COC(C)=O)[C@@H]12)O3
inactive: dose: 0.03 mg/kg/injection, schedule: Q01DX009 (ip), vehicle: carboxymethylcellulose (CMC) 99 % of control | dose: 0.12 mg/kg/injection, schedule: Q01DX009 (ip), vehicle: carboxymethylcellulose (CMC) 102 % of control | dose: 0.25 mg/kg/injection, schedule: Q01DX009 (ip), vehicle: carboxymethylcellulose (CMC) 97 % of control | [6] 99 % of control | dose: 8.0 mg/kg/injection, schedule: Q01DX009 (ip), vehicle: saline with Tween-80 105 % of control | dose: 12.0 mg/kg/injection, schedule: Q01DX009 (ip), vehicle: saline with Tween-80 109 % of control | dose: 18.0 mg/kg/injection, schedule: Q01DX009 (ip), vehicle: saline with Tween-80 92 % of control

Cc1n(CC(C)C)c2c([n+]1CC(=O)c1ccc([N+](=O)[O-])cc1)C(=O)c1ccccc1C2=O
inactive: dose: 0.1 mg/kg/injection, schedule: Q01DX009 (ip), vehicle: saline 95 % of control | dose: 0.2 mg/kg/injection, schedule: Q01DX009 (ip), vehicle: saline 97 % of control | dose: 0.4 mg/kg/injection, schedule: Q01DX009 (ip), vehicle: saline 97 % of control | dose: 0.8 mg/kg/injection, schedule: Q01DX009 (ip), vehicle: saline 88 % of control | dose: 1.2 mg/kg/injection, schedule: Q01DX009 (ip), vehicle: Klucel (hydroxypropylcellulose) (HPC) 93 % of control | dose: 1.25 mg/kg/injection, schedule: Q01DX009 (ip), vehicle: saline with Tween-80 86 % of control | dose: 1.8 mg/kg/injection, schedule: Q01DX009 (ip), vehicle: Klucel (hydroxypropylcellulose) (HPC) 93 % of control | dose: 2.5 mg/kg/injection, schedule: Q01DX009 (ip), vehicle: saline with Tween-80 86 % of control | dose: 3.0 mg/kg/injection, schedule: Q01DX009 (ip), vehicle: Klucel (hydroxypropylcellulose) (HPC) 87 % of control | dose: 5.0 mg/kg/injection, schedule: Q01DX009 (ip), vehicle: Klucel (hydroxypropylcellulose) (HPC) 93 % of control

CC1(c2ccc(Cl)cc2)OC(=O)C(=Cc2ccc([N+](=O)[O-])s2)C(=O)O1 (centres undefined)
inactive: [4] 92 % of control | [5] 87 % of control

CC(N)C(O)c1cccc(O)c1 (centres undefined)
inactive: [10] 94 % of control | [11] 102 % of control | [12] 105 % of control | [13] 100 % of control

Cc1cccc(C)c1NC(=O)Nc1cccc(Cl)c1
inactive: [1] 100 % of control | [14] 100 % of control | [2] 100 % of control | [15] 100 % of control | dose: 400.0 mg/kg/injection, schedule: Q01DX009 (ip), vehicle: Klucel (hydroxypropylcellulose) (HPC) 86 % of control | [16] 100 % of control

Cc1cc(Cl)ccc1NC(=O)c1ccc(Cl)cc1Cl
inactive: [14] 100 % of control | [15] 97 % of control | [16] 97 % of control

c1cncc(C2OCCO2)c1
inactive: [8] 98 % of control | [9] 89 % of control | dose: 400.0 mg/kg/injection, schedule: Q01DX009 (ip), vehicle: saline with Tween-80 89 % of control

CN(C)CCOC(=O)COc1ccc(Cl)cc1
inactive: [12] 104 % of control | [13] 104 % of control | [17] 109 % of control | dose: 200.0 mg/kg/injection, schedule: Q01DX009 (ip), vehicle: saline 102 % of control | dose: 400.0 mg/kg/injection, schedule: Q01DX009 (ip), vehicle: saline 97 % of control

CCC(CCCN(CC)CCc1ccccc1)OC(=O)c1cc(OC)c(OC)c(OC)c1 (centres undefined)
inactive: dose: 4.68 mg/kg/injection, schedule: Q01DX009 (ip), vehicle: saline 104 % of control | dose: 9.37 mg/kg/injection, schedule: Q01DX009 (ip), vehicle: saline 108 % of control | dose: 18.75 mg/kg/injection, schedule: Q01DX009 (ip), vehicle: saline 103 % of control | dose: 37.5 mg/kg/injection, schedule: Q01DX009 (ip), vehicle: saline 100 % of control | dose: 75.0 mg/kg/injection, schedule: Q01DX009 (ip), vehicle: saline 91 % of control

OCC1OC(n2cnc3c(=S)nc[nH]c32)C(O)C1O (centres undefined)
inactive: dose: 12.5 mg/kg/injection, schedule: Q01DX009 (ip), vehicle: saline sonified 102 % of control | dose: 25.0 mg/kg/injection, schedule: Q01DX009 (ip), vehicle: saline sonified 105 % of control | dose: 50.0 mg/kg/injection, schedule: Q01DX009 (ip), vehicle: saline sonified 105 % of control | [7] 104 % of control | dose: 100.0 mg/kg/injection, schedule: Q01DX009 (ip), vehicle: saline sonified 95 % of control and 100 % of control | [8] 104 % of control | dose: 200.0 mg/kg/injection, schedule: Q01DX009 (ip), vehicle: saline sonified 102 % of control | [9] 100 % of control

Cc1cc(C)[nH]c(=O)n1
inactive: [12] 115 % of control | [13] 101 % of control | [17] 102 % of control
